Data reported in ChEMBL document CHEMBL1201862, “PubChem BioAssay data set” (2004).
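Results reflect a 48-hour exposure of cells in 96-well plates to compound at five concentrations. GI50 is the concentration that inhibits growth by half.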 Activity calls are given as the source filed them. Cut-off read from the data, not from the text of the source: active = GI50 up to about 1.1 µM and inactive = higher.

Assays:
Assay in all cases: DTP human tumour cell line panel, 48 h
PC-3 = system: PC-3
SN12C = system: SN12C
MDA-N = system: MDA-N
A549 = system: A549
HOP-92 = system: HOP-92
Malme-3M = system: Malme-3M
HT-29 = system: HT-29
OVCAR-4 = system: OVCAR-4
NCI-H226 = system: NCI-H226
NCI-H522 = system: NCI-H522
M14 = system: M14
TK-10 = system: TK-10
OVCAR-8 = system: OVCAR-8
BT-549 = system: BT-549
RXF 393 = system: RXF 393
LOX IMVI = system: LOX IMVI
CAKI-1 = system: CAKI-1
SK-OV-3 = system: SK-OV-3

Compound	GI50 (PC-3)	GI50 (SN12C)	GI50 (MDA-N)	GI50 (A549)	GI50 (HOP-92)	GI50 (Malme-3M)	GI50 (HT-29)	GI50 (OVCAR-4)	GI50 (NCI-H226)	GI50 (NCI-H522)	GI50 (M14)	GI50 (TK-10)	GI50 (OVCAR-8)	GI50 (BT-549)	GI50 (RXF 393)	GI50 (LOX IMVI)	GI50 (CAKI-1)	GI50 (SK-OV-3)
C=C1c2[nH]c3ccccc3c2C2C(CC)C1CCN2C (centres undefined)	32.8 µM (inactive)	98.4 µM (inactive)	72.8 µM (inactive)	> 100 µM (inactive)	25.6 µM (inactive)	24.3 µM (inactive)	27.8 µM (inactive)	53.6 µM (inactive)	6.62 µM (inactive)	63.2 µM (inactive)	19.3 µM (inactive)	33.3 µM (inactive)	53.1 µM (inactive)	> 100 µM (inactive)	> 100 µM (inactive)	49.7 µM (inactive)	> 100 µM (inactive)	> 100 µM (inactive)
COc1ccc2[nH]c3c([N+](=O)[O-])ccc(Cl)c3c(=O)c2c1	22.5 µM (inactive)	22.9 µM (inactive)	21.2 µM (inactive)	62.4 µM (inactive)	14 µM (inactive)	19.6 µM (inactive)	16.3 µM (inactive)	15.4 µM (inactive)	34.4 µM (inactive)	19 µM (inactive)	15.8 µM (inactive)	20.2 µM (inactive)	22 µM (inactive)	17.2 µM (inactive)	13.6 µM (inactive)	7.71 µM (inactive)	23.2 µM (inactive)	> 63.1 µM (inactive)
Cc1cc(-c2nc3cc(F)ccc3s2)ccc1NC(=O)[C@@H](N)CCCCN	8.05 µM (inactive)	13 µM (inactive)	1.77 µM (inactive)	1.67 µM (inactive)	13.4 µM (inactive)	17.4 µM (inactive)	2.82 µM (inactive)	2.12 µM (inactive)	0.134 µM (active)	5.46 µM (inactive)	2.14 µM (inactive)	< 0.0132 µM (active)	4.82 µM (inactive)	12.9 µM (inactive)	7.26 µM (inactive)	1.82 µM (inactive)	0.647 µM (active)	8.26 µM (inactive)
O=C1CCCC(=O)N1n1c(Cc2ccccc2)n[nH]c1=O	> 100 µM (inactive)	> 100 µM (inactive)	> 100 µM (inactive)	> 100 µM (inactive)	> 100 µM (inactive)	> 100 µM (inactive)	> 100 µM (inactive)	> 100 µM (inactive)	> 100 µM (inactive)	> 100 µM (inactive)	> 100 µM (inactive)	> 100 µM (inactive)	> 100 µM (inactive)	> 100 µM (inactive)	> 100 µM (inactive)	> 100 µM (inactive)	> 100 µM (inactive)	> 100 µM (inactive)
COC(=O)[C@H](Cc1ccccc1)NC(=O)OCC1OC(n2cc(C)c(=O)[nH]c2=O)CC1N=[N+]=[N-] (some centres undefined)	> 100 µM (inactive)	> 100 µM (inactive)	> 100 µM (inactive)	> 100 µM (inactive)	> 100 µM (inactive)	> 100 µM (inactive)	> 100 µM (inactive)	> 100 µM (inactive)	> 100 µM (inactive)	> 100 µM (inactive)	> 100 µM (inactive)	> 100 µM (inactive)	> 100 µM (inactive)	> 100 µM (inactive)	> 100 µM (inactive)	> 100 µM (inactive)	> 100 µM (inactive)	> 100 µM (inactive)
Cn1c(-c2ccco2)ccc1-c1ccc(C=O)o1	> 100 µM (inactive)	77.6 µM (inactive)	35.7 µM (inactive)	> 100 µM (inactive)	31 µM (inactive)	> 100 µM (inactive)	44.9 µM (inactive)	56.4 µM (inactive)	> 100 µM (inactive)	> 100 µM (inactive)	35 µM (inactive)	> 100 µM (inactive)	37.3 µM (inactive)	95.7 µM (inactive)	> 100 µM (inactive)	34.8 µM (inactive)	13 µM (inactive)	> 100 µM (inactive)
Cc1ccc(S(=O)(=O)Nn2c(O)c(C#N)c(-c3ccc(Cl)cc3)c(C#N)c2=O)cc1	> 100 µM (inactive)	> 100 µM (inactive)	> 100 µM (inactive)	> 100 µM (inactive)	> 100 µM (inactive)	> 100 µM (inactive)	> 100 µM (inactive)	> 100 µM (inactive)	> 100 µM (inactive)	> 100 µM (inactive)	> 100 µM (inactive)	> 100 µM (inactive)	> 100 µM (inactive)	> 100 µM (inactive)	> 100 µM (inactive)	> 100 µM (inactive)	> 100 µM (inactive)	> 100 µM (inactive)
O=C1CNCCCN2CCN(CCCNCC(=O)Nc3ccc(cc3)S(=O)(=O)c3ccc(cc3)NC(=O)CNCCCN3CCN(CCCNCC(=O)Nc4ccc(cc4)S(=O)(=O)c4ccc(cc4)N1)CC3)CC2	42.3 µM (inactive)	> 45.3 µM (inactive)	19.3 µM (inactive)	57.3 µM (inactive)	28.1 µM (inactive)	11.9 µM (inactive)	27.2 µM (inactive)	> 47.9 µM (inactive)	> 47.1 µM (inactive)	10.7 µM (inactive)	46 µM (inactive)	20.8 µM (inactive)	24.8 µM (inactive)	30 µM (inactive)	28.6 µM (inactive)	21 µM (inactive)	30.1 µM (inactive)	> 100 µM (inactive)
